PMC6409085, “Three odorant-binding proteins are involved in the behavioral response of Sogatella furcifera to rice plant volatiles” (PeerJ, 2019)
Where “and” joins values, the source holds several entries; their conditions need not be identical. Equal entries are not always repeated.

Columns and labels:
Test in all cases: biochemical
Type in all cases: binding
SfurOBP2 = SfurOBP2 (Sogatella furcifera, UniProt V5T759)
How it was run: (§1)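 In 50 mM Tris-HCl pH 7.4, odorants displace 1-NPN (2.0 µM) from 2.0 µM protein. Emission at 390–490 nm under 337 nm excitation is measured 2 min after competitor addition, in triplicate. Ki is obtained from IC50 and the 1-NPN dissociation constant.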

SfurOBP3 = SfurOBP3 (Sogatella furcifera, UniProt V5T818); conditions: for Fluorescence competitive binding assay, fluorescence intensity: OBP3, three replicate columns
How it was run: as §1

SfurOBP11 = SfurOBP11 (Sogatella furcifera, UniProt V5T6E3)
How it was run: as §1

SfurOBP1 = SfurOBP1 (Sogatella furcifera, UniProt V5T8N5); conditions: for Fluorescence competitive binding assay, fluorescence intensity: OBP1, three replicate columns
How it was run: as §1

Sequence of SfurOBP3 (V5T818 entry or part of it): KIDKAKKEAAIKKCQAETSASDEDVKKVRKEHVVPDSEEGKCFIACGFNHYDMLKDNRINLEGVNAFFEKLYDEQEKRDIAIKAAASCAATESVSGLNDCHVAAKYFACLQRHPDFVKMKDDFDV
Sequence of SfurOBP1 (V5T8N5 entry or part of it): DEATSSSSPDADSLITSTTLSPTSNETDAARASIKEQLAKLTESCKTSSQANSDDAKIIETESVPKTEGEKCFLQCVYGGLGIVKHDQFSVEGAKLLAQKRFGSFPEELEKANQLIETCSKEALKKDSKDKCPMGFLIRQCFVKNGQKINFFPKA
Sequence of SfurOBP2 (V5T759 entry or part of it): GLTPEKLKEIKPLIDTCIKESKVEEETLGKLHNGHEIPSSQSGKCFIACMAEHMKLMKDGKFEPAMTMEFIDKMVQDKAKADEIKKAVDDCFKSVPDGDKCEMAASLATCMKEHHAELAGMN
Sequence of SfurOBP11 (V5T6E3 entry or part of it): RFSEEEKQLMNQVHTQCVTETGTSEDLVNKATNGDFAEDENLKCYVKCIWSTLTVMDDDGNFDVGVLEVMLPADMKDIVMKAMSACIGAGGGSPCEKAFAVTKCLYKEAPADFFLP

- IC50 (SfurOBP2; SfurOBP2, protein and 1-NPN both 2.0 µM, competitor 2-20 µM, read-out: IC50): > 20 µM
- Fluorescence competitive binding assay, OBP2 (raw fluorescence reading) (SfurOBP2; ligand concentration 2 (unit not given), replicate column 1 of 3): 18915
- Fluorescence competitive binding assay, OBP2 (raw fluorescence reading) (SfurOBP2; ligand concentration 2 (unit not given), replicate column 2 of 3): 20597
- Fluorescence competitive binding assay, OBP2 (raw fluorescence reading) (SfurOBP2; ligand concentration 2 (unit not given), replicate column 3 of 3): 23440
- Fluorescence competitive binding assay, OBP2 (raw fluorescence reading) (SfurOBP2; ligand concentration 4 (unit not given), replicate column 1 of 3): 24181
- Fluorescence competitive binding assay, OBP2 (raw fluorescence reading) (SfurOBP2; ligand concentration 4 (unit not given), replicate column 2 of 3): 28014
- Fluorescence competitive binding assay, OBP2 (raw fluorescence reading) (SfurOBP2; ligand concentration 4 (unit not given), replicate column 3 of 3): 25410
- Fluorescence competitive binding assay, OBP2 (raw fluorescence reading) (SfurOBP2; ligand concentration 6 (unit not given), replicate column 1 of 3): 34688
- Fluorescence competitive binding assay, OBP2 (raw fluorescence reading) (SfurOBP2; ligand concentration 6 (unit not given), replicate column 2 of 3): 31794
- Fluorescence competitive binding assay, OBP2 (raw fluorescence reading) (SfurOBP2; ligand concentration 6 (unit not given), replicate column 3 of 3): 34987
- Fluorescence competitive binding assay, OBP2 (raw fluorescence reading) (SfurOBP2; ligand concentration 8 (unit not given), replicate column 1 of 3): 33082
- Fluorescence competitive binding assay, OBP2 (raw fluorescence reading) (SfurOBP2; ligand concentration 8 (unit not given), replicate column 2 of 3): 40303
- Fluorescence competitive binding assay, OBP2 (raw fluorescence reading) (SfurOBP2; ligand concentration 8 (unit not given), replicate column 3 of 3): 37763
- Fluorescence competitive binding assay, OBP2 (raw fluorescence reading) (SfurOBP2; ligand concentration 10 (unit not given), replicate column 1 of 3): 37285
- Fluorescence competitive binding assay, OBP2 (raw fluorescence reading) (SfurOBP2; ligand concentration 10 (unit not given), replicate column 2 of 3): 44653
- Fluorescence competitive binding assay, OBP2 (raw fluorescence reading) (SfurOBP2; ligand concentration 10 (unit not given), replicate column 3 of 3): 45169
- Fluorescence competitive binding assay, OBP2 (raw fluorescence reading) (SfurOBP2; ligand concentration 12 (unit not given), replicate column 1 of 3): 40538
- Fluorescence competitive binding assay, OBP2 (raw fluorescence reading) (SfurOBP2; ligand concentration 12 (unit not given), replicate column 2 of 3): 46457
- Fluorescence competitive binding assay, OBP2 (raw fluorescence reading) (SfurOBP2; ligand concentration 12 (unit not given), replicate column 3 of 3): 42564
- Fluorescence competitive binding assay, OBP2 (raw fluorescence reading) (SfurOBP2; ligand concentration 14 (unit not given), replicate column 1 of 3): 47395
- Fluorescence competitive binding assay, OBP2 (raw fluorescence reading) (SfurOBP2; ligand concentration 14 (unit not given), replicate column 2 of 3): 46610
- Fluorescence competitive binding assay, OBP2 (raw fluorescence reading) (SfurOBP2; ligand concentration 14 (unit not given), replicate column 3 of 3): 49253
- Fluorescence competitive binding assay, OBP2 (raw fluorescence reading) (SfurOBP2; ligand concentration 16 (unit not given), replicate column 1 of 3): 41133
- Fluorescence competitive binding assay, OBP2 (raw fluorescence reading) (SfurOBP2; ligand concentration 16 (unit not given), replicate column 2 of 3): 50168
- Fluorescence competitive binding assay, OBP2 (raw fluorescence reading) (SfurOBP2; ligand concentration 16 (unit not given), replicate column 3 of 3): 50416
- Fluorescence competitive binding assay, OBP2 (raw fluorescence reading) (SfurOBP2; ligand concentration 18 (unit not given), replicate column 1 of 3): 50240
- Fluorescence competitive binding assay, OBP2 (raw fluorescence reading) (SfurOBP2; ligand concentration 18 (unit not given), replicate column 2 of 3): 52962
- Fluorescence competitive binding assay, OBP2 (raw fluorescence reading) (SfurOBP2; ligand concentration 18 (unit not given), replicate column 3 of 3): 54896
- Fluorescence competitive binding assay, OBP2 (raw fluorescence reading) (SfurOBP2; ligand concentration 20 (unit not given), replicate column 1 of 3): 51479
- Fluorescence competitive binding assay, OBP2 (raw fluorescence reading) (SfurOBP2; ligand concentration 20 (unit not given), replicate column 2 of 3): 53666
- Fluorescence competitive binding assay, OBP2 (raw fluorescence reading) (SfurOBP2; ligand concentration 20 (unit not given), replicate column 3 of 3): 47381
- Fluorescence competitive binding assay, fluorescence intensity (SfurOBP3; ligand concentration 2): 87733 and 85025 and 77897
- Fluorescence competitive binding assay, fluorescence intensity (SfurOBP3; ligand concentration 4): 115777 and 106868 and 104692
- Fluorescence competitive binding assay, fluorescence intensity (SfurOBP3; ligand concentration 6): 125530 and 125631 and 129726
- Fluorescence competitive binding assay, fluorescence intensity (SfurOBP3; ligand concentration 8): 107521 and 145667 and 147221
- Fluorescence competitive binding assay, fluorescence intensity (SfurOBP3; ligand concentration 10): 173091 and 157740 and 127122
- Fluorescence competitive binding assay, fluorescence intensity (SfurOBP3; ligand concentration 12): 158103 and 182941 and 142916
- Fluorescence competitive binding assay, fluorescence intensity (SfurOBP3; ligand concentration 14): 176147 and 111843 and 160442
- Fluorescence competitive binding assay, fluorescence intensity (SfurOBP3; ligand concentration 16): 151941 and 158990 and 157774
- Fluorescence competitive binding assay, fluorescence intensity (SfurOBP3; ligand concentration 18): 173084 and 168625 and 167342
- Fluorescence competitive binding assay, fluorescence intensity (SfurOBP3; ligand concentration 20): 193319 and 125518 and 175321
- IC50 (SfurOBP3; SfurOBP3, protein and 1-NPN both 2.0 µM, competitor 2-20 µM, read-out: IC50): > 20 µM
- IC50 (SfurOBP11; SfurOBP11, protein and 1-NPN both 2.0 µM, competitor 2-20 µM, read-out: IC50): > 20 µM
- Fluorescence intensity, fluorescence competitive binding assay, OBP11 (SfurOBP11; ligand concentration 2, replicate 1): 43164
- Fluorescence intensity, fluorescence competitive binding assay, OBP11 (SfurOBP11; ligand concentration 2, replicate 2): 38605
- Fluorescence intensity, fluorescence competitive binding assay, OBP11 (SfurOBP11; ligand concentration 2, replicate 3): 37407
- Fluorescence intensity, fluorescence competitive binding assay, OBP11 (SfurOBP11; ligand concentration 4, replicate 1): 45394
- Fluorescence intensity, fluorescence competitive binding assay, OBP11 (SfurOBP11; ligand concentration 4, replicate 2): 44519
- Fluorescence intensity, fluorescence competitive binding assay, OBP11 (SfurOBP11; ligand concentration 4, replicate 3): 44324
- Fluorescence intensity, fluorescence competitive binding assay, OBP11 (SfurOBP11; ligand concentration 6, replicate 1): 52018
- Fluorescence intensity, fluorescence competitive binding assay, OBP11 (SfurOBP11; ligand concentration 6, replicate 2): 51596
- Fluorescence intensity, fluorescence competitive binding assay, OBP11 (SfurOBP11; ligand concentration 6, replicate 3): 52439
- Fluorescence intensity, fluorescence competitive binding assay, OBP11 (SfurOBP11; ligand concentration 8, replicate 1): 52547
- Fluorescence intensity, fluorescence competitive binding assay, OBP11 (SfurOBP11; ligand concentration 8, replicate 2): 53605
- Fluorescence intensity, fluorescence competitive binding assay, OBP11 (SfurOBP11; ligand concentration 8, replicate 3): 57390
- Fluorescence intensity, fluorescence competitive binding assay, OBP11 (SfurOBP11; ligand concentration 10, replicate 1): 53386
- Fluorescence intensity, fluorescence competitive binding assay, OBP11 (SfurOBP11; ligand concentration 10, replicate 2): 50348
- Fluorescence intensity, fluorescence competitive binding assay, OBP11 (SfurOBP11; ligand concentration 10, replicate 3): 61467
- Fluorescence intensity, fluorescence competitive binding assay, OBP11 (SfurOBP11; ligand concentration 12, replicate 1): 60450
- Fluorescence intensity, fluorescence competitive binding assay, OBP11 (SfurOBP11; ligand concentration 12, replicate 2): 60637
- Fluorescence intensity, fluorescence competitive binding assay, OBP11 (SfurOBP11; ligand concentration 12, replicate 3): 60823
- Fluorescence intensity, fluorescence competitive binding assay, OBP11 (SfurOBP11; ligand concentration 14, replicate 1): 64649
- Fluorescence intensity, fluorescence competitive binding assay, OBP11 (SfurOBP11; ligand concentration 14, replicate 2): 70642
- Fluorescence intensity, fluorescence competitive binding assay, OBP11 (SfurOBP11; ligand concentration 14, replicate 3): 65311
- Fluorescence intensity, fluorescence competitive binding assay, OBP11 (SfurOBP11; ligand concentration 16, replicate 1): 64270
- Fluorescence intensity, fluorescence competitive binding assay, OBP11 (SfurOBP11; ligand concentration 16, replicate 2): 67002
- Fluorescence intensity, fluorescence competitive binding assay, OBP11 (SfurOBP11; ligand concentration 16, replicate 3): 65982
- Fluorescence intensity, fluorescence competitive binding assay, OBP11 (SfurOBP11; ligand concentration 18, replicate 1): 78706
- Fluorescence intensity, fluorescence competitive binding assay, OBP11 (SfurOBP11; ligand concentration 18, replicate 2): 81987
- Fluorescence intensity, fluorescence competitive binding assay, OBP11 (SfurOBP11; ligand concentration 18, replicate 3): 75370
- Fluorescence intensity, fluorescence competitive binding assay, OBP11 (SfurOBP11; ligand concentration 20, replicate 1): 97463
- Fluorescence intensity, fluorescence competitive binding assay, OBP11 (SfurOBP11; ligand concentration 20, replicate 2): 75326
- Fluorescence intensity, fluorescence competitive binding assay, OBP11 (SfurOBP11; ligand concentration 20, replicate 3): 72923
- Fluorescence competitive binding assay, fluorescence intensity (SfurOBP1; ligand concentration 2 (μM)): 13439 and 10181 and 10387
- Fluorescence competitive binding assay, fluorescence intensity (SfurOBP1; ligand concentration 4 (μM)): 12999 and 14054 and 13054
- Fluorescence competitive binding assay, fluorescence intensity (SfurOBP1; ligand concentration 6 (μM)): 17843 and 17435 and 18755
- Fluorescence competitive binding assay, fluorescence intensity (SfurOBP1; ligand concentration 8 (μM)): 20344 and 21618 and 19391
- Fluorescence competitive binding assay, fluorescence intensity (SfurOBP1; ligand concentration 10 (μM)): 25143 and 20920 and 29597
- Fluorescence competitive binding assay, fluorescence intensity (SfurOBP1; ligand concentration 12 (μM)): 25050 and 26471 and 24718
- Fluorescence competitive binding assay, fluorescence intensity (SfurOBP1; ligand concentration 14 (μM)): 31790 and 28307 and 28799
- Fluorescence competitive binding assay, fluorescence intensity (SfurOBP1; ligand concentration 16 (μM)): 25660 and 26360 and 27874
- Fluorescence competitive binding assay, fluorescence intensity (SfurOBP1; ligand concentration 18 (μM)): 34663 and 37908 and 36994
- Fluorescence competitive binding assay, fluorescence intensity (SfurOBP1; ligand concentration 20 (μM)): 37718 and 33824 and 31648
- IC50 (SfurOBP1; SfurOBP1, protein and 1-NPN both 2.0 µM, competitor 2-20 µM, read-out: IC50): > 20 µM
Structure (SMILES): CCCCCCCCCCOCCCCCCCCCC [didecyl ether]
